Experimental data: US20220128542A1, “TREATMENT EFFICIENCY EVALUATION” (TX MEDIC AB, priority 2019, published 2022)
Marks after values point to notes of the source that are not given here.

System: brain of rats subjected to severe traumatic brain injury (sTBI)
Assay: HPLC of free amino acids and amino group containing compounds in brain after sTBI (Example 1)
Assay type: in vivo, rat
Method: They were divided into three groups:
1) n=6 animals subjected to sTBI, with drug administration after 30 minutes and sacrifice at 2 days post-TBI (Acute phase 1)
2) n=6 animals subjected to sTBI, with drug administration after 30 minutes and sacrifice at 7 days post-TBI (Acute phase 2).
3) n=6 animals subjected to sTBI, with drug administration after 3 days and sacrifice at 7 days post-TBI (Chronic phase).
The drug treatment was a subcutaneous injection of 0.5 ml of LMW-DS (15 mg/kg) and administered according to the aforementioned schematic protocol.
After the wet weight (w.w.) determination, tissue preparation was affected as previously disclosed (Tavazzi et al., Neurosurgery. 2005; 56: 582-589; Vagnozzi et al., Neurosurgery. 2007; 61: 379-388; Tavazzi et al., Neurosurgery. 2007; 61: 390-395; Amorini et al., J Cell Mol Med. 2017; 21: 530-542.). Briefly, whole brain homogenization was performed with 7 ml of ice-cold, nitrogen-saturated, precipitating solution composed by CH3CN+10 mM KH2PO4, pH 7.40, (3:1; v:v), and using an Ultra-Turrax set at 24,000 rpm/min (Janke & Kunkel, Staufen, Germany). After centrifugation at 20,690×g, for 10 min at 4° C., the clear supernatants were saved, pellets were supplemented with 3 ml of the precipitating solution and homogenized again as described above. A second centrifugation was performed (20,690×g, for 10 min at 4° C.), pellets were saved, supernatants combined with those previously obtained, extracted by vigorous agitation with a double volume of HPLC-grade CHCl3 and centrifuged as above. The upper aqueous phases containing water-soluble low-molecular weight compounds were collected, subjected to chloroform washings for two more times (this procedure allowed the removal of all the organic solvent and of any lipid soluble compound from the buffered tissue extracts), adjusted in volumes with 10 mM KH2PO4, pH 7.40, to have ultimately aqueous 10% tissue homogenates and saved at −80° C. until assayed.
The simultaneous determination of primary free amino acids (FAA) and amino group containing compounds (AGCC) (listed below) was performed using the precolumn derivatization of the sample with a mixture of Ortho-phthalaldehyde (OPA) and 3-Mercaptopropionic acid (MPA), as described in detail elsewhere (Amorini et al., J Cell Mol Med. 2017; 21: 530-542; Amorini et al., Mol Cell Biochem. 2012; 359: 205-216). […] The automated precolumn derivatization of the samples (15 μl) with OPA-MPA was carried out at 24° C. and 25 μl of the derivatized mixture were loaded onto the HPLC column (Hypersil C-18, 250×4.6 mm, 5 μm particle size, thermostated at 21° C.) for the subsequent chromatographic separation. In the case of glutamate, deproteinized brain extracts were diluted 20 times with HPLC-grade H2O prior to the derivatization procedure and subsequent injection. Separation of OPA-AA and OPA-AGCC was carried out at a flow rate of 1.2 ml/min using two mobile phases (mobile phase A=24 mmol/l CH3COONa+24 mmol/l Na2HPO4+1% tetrahydrofurane+0.1% trifluoroacetic acid, pH 6.5; mobile phase B=40% CH3OH+30% CH3CN+30% H2O), using an appropriate step gradient (Amorini et al., J Cell Mol Med. 2017; 21: 530-542; Amorini et al., Mol Cell Biochem. 2012; 359: 205-216).
Assignment and calculation of the OPA-AA and OPA-AGCC in chromatographic runs of whole brain extracts were carried out at 338 nm wavelengths by comparing retention times and areas of peaks with those of peaks of chromatographic runs of freshly-prepared ultra-pure standard mixtures with known concentrations. […]

[1] = Acute phase 1: 15 mg/kg s.c. 30 min post-sTBI, sacrifice day 2
[2] = Acute phase 2: 15 mg/kg s.c. 30 min post-sTBI, sacrifice day 7
[3] = Chronic phase: 15 mg/kg s.c. 3 days post-sTBI, sacrifice day 7

In the case of sodium salt of dextran sulfate [LMW-DS], the “effect on sTBI-induced increase in glutamate (GLU)” value (15 mg/kg s.c. early post-injury (30 min following sTBI)) is reported as “remarkable inhibition”, the “effect on glutamate excitotoxicity marker” value (15 mg/kg s.c. injected at 3 days after sTBI) is reported as “no efficacy” and the ALA cerebral concentration [1] is reported as 0.50 ± 0.12^a μmol/g (w.w.). For the same substance, the ARG cerebral concentration [1] was 0.13 ± 0.02^b, d μmol/g (w.w.), the ASN cerebral concentration [1] was 0.12 ± 0.02^i μmol/g (w.w.) and the ASP cerebral concentration [1] was 2.40 ± 0.56^d, i μmol/g (w.w.). For the same substance, the CITR cerebral concentration [1] was 0.018 ± 0.004 µmol/g (w.w.), the GABA cerebral concentration [1] was 1.43 ± 0.25^a μmol/g (w.w.) and the GLN cerebral concentration [1] was 4.78 ± 1.09^a μmol/g (w.w.). The GLU cerebral concentration [1] was 9.81 ± 1.66^i μmol/g (w.w.), the GLY cerebral concentration [1] was 0.83 ± 0.25^a, c μmol/g (w.w.) and the HIS cerebral concentration [1] was 0.068 ± 0.015^b μmol/g (w.w.). The ILE cerebral concentration [1] was 0.038 ± 0.007 µmol/g (w.w.), the L-Cystat cerebral concentration [1] was 0,185 ± 0.031^b, c, i μmol/g (w.w.) and the LEU cerebral concentration [1] was 0.021 ± 0.005^a, c μmol/g (w.w.). The LYS cerebral concentration [1] was 0.236 ± 0.057^b, d, h μmol/g (w.w.), the MET cerebral concentration [1] was 0.016 ± 0.005^d, j μmol/g (w.w.) and the ORN cerebral concentration [1] was 0.014 ± 0.007 µmol/g (w.w.). The PHE cerebral concentration [1] was 0.031 ± 0.011^b, d μmol/g (w.w.), the SAH cerebral concentration [1] was 0.033 ± 0.008^b, c, j μmol/g (w.w.) and the SER cerebral concentration [1] was 0.88 ± 0.25^a μmol/g (w.w.). The TAU cerebral concentration [1] was 4.86 ± 0.85^b μmol/g (w.w.), the THR cerebral concentration [1] was 0.92 ± 0.29^a μmol/g (w.w.) and the TRP cerebral concentration [1] was 0.030 ± 0.007^b, dg, i μmol/g (w.w.). For the same substance, the TYR cerebral concentration [1] was 0.15 ± 0.03 µmol/g (w.w.), the VAL cerebral concentration [1] was 0.042 ± 0.011 µmol/g (w.w.) and the ALA cerebral concentration [2] was 0.52 ± 0.24^a, e μmol/g (w.w.). For the same substance, the ARG cerebral concentration [2] was 0.16 ± 0.03 µmol/g (w.w.), the ASN cerebral concentration [2] was 0.13 ± 0.03^i μmol/g (w.w.) and the ASP cerebral concentration [2] was 2.94 ± 0.98^f, j μmol/g (w.w.). The CITR cerebral concentration [2] was 0.018 ± 0.008 µmol/g (w.w.), the GABA cerebral concentration [2] was 1.60 ± 0.24^a μmol/g (w.w.) and the GLN cerebral concentration [2] was 3.66 ± 0.41 µmol/g (w.w.). The GLU cerebral concentration [2] was 9.93 ± 1.56^e, i μmol/g (w.w.), the GLY cerebral concentration [2] was 0.71 ± 0.16^f, i μmol/g (w.w.) and the HIS cerebral concentration [2] was 0.055 ± 0.019 µmol/g (w.w.). The ILE cerebral concentration [2] was 0.048 ± 0.017^a μmol/g (w.w.), the L-Cystat cerebral concentration [2] was 0.173 ± 0.038^b, f, i μmol/g (w.w.) and the LEU cerebral concentration [2] was 0.018 ± 0.004 µmol/g (w.w.). For the same substance, the LYS cerebral concentration [2] was 0.32 ± 0.04^a, e, i μmol/g (w.w.), the MET cerebral concentration [2] was 0.022 ± 0.006^b, e, i μmol/g (w.w.) and the ORN cerebral concentration [2] was 0.011 ± 0.005 µmol/g (w.w.). For the same substance, the PHE cerebral concentration [2] was 0.028 ± 0.010 µmol/g (w.w.), the SAH cerebral concentration [2] was 0.026 ± 0.010^f, i μmol/g (w.w.) and the SER cerebral concentration [2] was 0.71 ± 0.28^b μmol/g (w.w.). For the same substance, the TAU cerebral concentration [2] was 3.80 ± 1.19 µmol/g (w.w.), the THR cerebral concentration [2] was 0.66 ± 0.23 µmol/g (w.w.) and the TRP cerebral concentration [2] was 0.015 ± 0.006 µmol/g (w.w.). The TYR cerebral concentration [2] was 0.172 ± 0.046^b, f μmol/g (w.w.), the VAL cerebral concentration [2] was 0.057 ± 0.017 µmol/g (w.w.) and the ALA cerebral concentration [3] was 0.57 ± 0.28^a, e μmol/g (w.w.). The ARG cerebral concentration [3] was 0.14 ± 0.02 µmol/g (w.w.), the ASN cerebral concentration [3] was 0.18 ± 0.02^a μmol/g (w.w.) and the ASP cerebral concentration [3] was 4.46 ± 0.70^a, f μmol/g (w.w.). The CITR cerebral concentration [3] was 0.020 ± 0.006 µmol/g (w.w.), the GABA cerebral concentration [3] was 1.85 ± 0.65^a μmol/g (w.w.) and the GLN cerebral concentration [3] was 3.98 ± 0.34 µmol/g (w.w.). The GLU cerebral concentration [3] was 13.58 ± 1.28^a μmol/g (w.w.), the GLY cerebral concentration [3] was 1.05 ± 0.13^a, f μmol/g (w.w.) and the HIS cerebral concentration [3] was 0.047 ± 0.021 µmol/g (w.w.). For the same substance, the ILE cerebral concentration [3] was 0.041 ± 0.016^b μmol/g (w.w.), the L-Cystat cerebral concentration [3] was 0.26 ± 0.05^a, f μmol/g (w.w.) and the LEU cerebral concentration [3] was 0.024 ± 0.032^b, f μmol/g (w.w.). The LYS cerebral concentration [3] was 0.179 ± 0.036 µmol/g (w.w.), the MET cerebral concentration [3] was 0.009 ± 0.004^b μmol/g (w.w.) and the ORN cerebral concentration [3] was 0.017 ± 0.009^a, e μmol/g (w.w.). For the same substance, the PHE cerebral concentration [3] was 0.033 ± 0.011^b μmol/g (w.w.), the SAH cerebral concentration [3] was 0.050 ± 0.013^a μmol/g (w.w.) and the SER cerebral concentration [3] was 0.93 ± 0.27^a, e μmol/g (w.w.). The TAU cerebral concentration [3] was 4.49 ± 0.43^a μmol/g (w.w.), the THR cerebral concentration [3] was 0.75 ± 0.24^a, e μmol/g (w.w.) and the TRP cerebral concentration [3] was 0.012 ± 0.007 µmol/g (w.w.). The TYR cerebral concentration [3] was 0.21 ± 0.05^f μmol/g (w.w.) and the VAL cerebral concentration [3] was 0.040 ± 0.016^b μmol/g (w.w.).
